Each compound was assayed on HIF-1α-mediated HRE transcriptional activity (assay: Assay for inhibition of HIF-1α-mediated transcriptional activity (HRE reporter assay)). Conditions: HCT116 cells, 12 hours under hypoxia (1% O2).
Type: cell-based, human
Procedure: <Experiment 1> Assay for Inhibition of HIF-1α-Mediated Transcriptional Activity (HRE Reporter Assay)
The compounds can be developed as anti-cancer drugs, because the compounds inhibiting HIF-1α-mediated HRE transcriptional activity induced by hypoxia can suppress the growth and metastasis of cancer.
Inhibitory effects of the compounds according to the present invention, from Formula I-1 to I-42, on HIF-1α-mediated transcriptional activity were evaluated using this assay. pGL3-HRE-luciferase vector was constructed as follows. Six copies of HRE (Hypoxia Responsive Element, 5′-ACGTG-3′) from human VEGF genes were inserted into the multi-cloning site of a pGL3-basic vector (Promega). A luciferase gene was used as a reporter gene.
In detail, HCT116(ATCC #CCL-247) human colon cancer cells were seeded in 48-well cell culture plates. The cells were co-transfected with 25 ng of pGL3-HRE-luciferase and 2.5 ng of Renila control vectors using Polyfect reagent next day. After 24 hours of incubation, the cells were incubated for an additional 4 hours with replaced cell culture media. The cells were treated with various concentrations (0, 1, 3, 5, 10, and 20 μM) of the above compounds according to the present invention and incubated for 12 hours under hypoxia (1% O2, 94% N2, and 5% CO2). The luciferase assay was performed using a dual-luciferase reporter assay system (Promega). After cell lysate preparation with RIPA buffer, induced luciferase activity under hypoxic conditions was determined to examine inhibitory effects of the compounds according to the present invention, from Formula I-1 to I-42, on HIF-1α-mediated transcriptional activity.
With CN1CCN(C(=O)COc2ccc(C34CC5CC(CC(C5)C3)C4)cc2)CC1.Cl [Compound I-4, 4-(2-(4-(Adamantan-1-yl)phenoxy)acetyl)-1-methylpiperazin-1-ium chloride] the “Inhibitory activity against HIF-1α (10 μM)” value was “A (A(76˜100%))”.

Same assay, conditions: Homo sapiens, HCT-116, HCT116 cells, 12 hours under hypoxia (1% O2), read-out: Inhibitory activity against HIF-1α (10 μM)
Compound CN1CCN(C(=O)COc2ccc(C34CC5CC(CC(C5)C3)C4)cc2Cl)CC1 [Compound I-42, 2-(4-(Adamantan-1-yl)-2-chlorophenoxy)-1-(4-methylpiperazin-1-yl)ethanone] has an inhibition at 10 µM of 51 to 75%.
C[N+]1(C)CCN(C(=O)CCOc2ccc(C34CC5CC(CC(C5)C3)C4)cc2)CC1 [Compound I-18, 4-(3-(4-(Adamantan-1-yl)phenoxy)propanoyl)-1,1-dimethylpiperazin-1-ium iodide] showed an inhibition at 10 µM of 26 to 50%.
In the case of O=C(CCOc1ccc(C23CC4CC(CC(C4)C2)C3)cc1)N1CCOCC1 [Compound I-9, 3-(4-(Adamantan-1-yl)phenoxy)-1-morpholinopropan-1-one], the inhibition at 10 µM is reported as 76 to 100%.
For C[C@H]1CNCCN1C(=O)COc1ccc(C23CC4CC(CC(C4)C2)C3)cc1 [Compound I-32, 2-(4-(Adamantan-1-yl)phenoxy)-1-((S)-2-methylpiperazin-1-yl)ethanone], the inhibition at 10 µM was 76 to 100%.
With O=C(COc1ccc(C23CC4CC(CC(C4)C2)C3)cc1)NC1CC1 [Compound I-2, 2-(4-(Adamantan-1-yl)phenoxy)-N-cyclopropylacetamide] the inhibition at 10 µM was 76 to 100%.
In the case of Cc1cc(C23CC4CC(CC(C4)C2)C3)ccc1OCC(=O)NCCN(C)C [Compound I-7, 2-(4-(Adamantan-1-yl)-2-methylphenoxy)-N-(2-(dimethylamino)ethyl)acetamide], the inhibition at 10 µM is reported as 51 to 75%.
With O=C(COc1ccc(C23CC4CC(CC(C4)C2)C3)cc1)NC12CC3CC(CC(O)(C3)C1)C2 [Compound I-41, 2-(4-(Adamantan-1-yl)phenoxy)-N-(3-hydroxyadamantan-1-yl)acetamide] the inhibition at 10 µM was 76 to 100%.
In the case of C#CCN1CCN(C(=O)COc2ccc(C34CC5CC(CC(C5)C3)C4)cc2)CC1 [Compound I-36, 2-(4-(Adamantan-1-yl)phenoxy)-1-(4-(prop-2-yn-1-yl)piperazin-1-yl)ethanone], the inhibition at 10 µM is reported as 51 to 75%.
Work on Cc1cc(C23CC4CC(CC(C4)C2)C3)ccc1OCC(=O)N1CCN(C)CC1 [Compound I-5, 2-(4-(Adamantan-1-yl)-2-methylphenoxy)-1-(4-methylpiperazin-1-yl)ethanone] yielded an inhibition at 10 µM of 76 to 100%.
C[C@@H]1CNCCN1C(=O)COc1ccc(C23CC4CC(CC(C4)C2)C3)cc1 [Compound I-34, 2-(4-(Adamantan-1-yl)phenoxy)-1-((R)-2-methylpiperazin-1-yl)ethanone] was tested, and the inhibition at 10 µM was 51 to 75%.
Work on O=C(COc1ccc(C23CC4CC(CC(C4)C2)C3)cc1)NC12CC3CC(CC(C3)C1)C2 [Compound I-40, N-(adamantan-1-yl)-2-(4-(adamantan-1-yl)phenoxy)acetamide] yielded an inhibition at 10 µM of 1 to 25%.
In the case of C[C@@H]1CN(C(=O)OC(C)(C)C)CCN1C(=O)COc1ccc(C23CC4CC(CC(C4)C2)C3)cc1 [Compound I-33, (R)-tert-Butyl 4-(2-(4-(Adamantan-1-yl)phenoxy)acetyl)-3-methylpiperazine-1-carboxylate], the inhibition at 10 µM is reported as 76 to 100%.
For C[N+]1(C)CCN(C(=O)COc2ccc(C34CC5CC(CC(C5)C3)C4)cc2)CC1 [Compound I-15, 4-(2-(4-(Adamantan-1-yl)phenoxy)acetyl)-1,1-dimethylpiperazine-1-ium iodide], the inhibition at 10 µM was 26 to 50%.
CN1CCN(C(=O)COc2ccc(C34CC5CC(CC(C5)C3)C4)cc2F)CC1 [Compound I-25, 2-(4-(Adamantan-1-yl)-2-fluorophenoxy)-1-(4-methylpiperazin-1-yl)ethanone] showed an inhibition at 10 µM of 51 to 75%.
In the case of CN1CCN(c2ccc(NC(=O)COc3ccc(C45CC6CC(CC(C6)C4)C5)cc3)cc2)CC1 [Compound I-37, 2-(4-(Adamantan-1-yl)phenoxy)-N-(4-(4-methylpiperazin-1-yl)phenyl)acetamide], the inhibition at 10 µM is reported as 1 to 25%.
With CC(C)N1CCN(C(=O)COc2ccc(C34CC5CC(CC(C5)C3)C4)cc2)CC1 [Compound I-28, 2-(4-(Adamantan-1-yl)phenoxy)-1-(4-isopropylpiperazin-1-yl)ethanone] the inhibition at 10 µM was 51 to 75%.
O=C(COc1ccc(C23CC4CC(CC(C4)C2)C3)cc1)Nc1ccc(N2CCS(=O)(=O)CC2)cc1 [Compound I-38, 2-(4-(Adamantan-1-yl)phenoxy)-N-(4-(1,1-dioxidothiomorpholino)phenyl)acetamide] showed an inhibition at 10 µM of 51 to 75%.
In the case of CN1CCN(C(=O)CCCOc2ccc(C34CC5CC(CC(C5)C3)C4)cc2)CC1 [Compound I-14, 4-(4-(Adamantan-1-yl)phenoxy)-1-(4-methylpiperazin-1-yl)butan-1-one], the inhibition at 10 µM is reported as 51 to 75%.
CN(C)C(=O)COc1ccc(C23CC4CC(CC(C4)C2)C3)cc1 [Compound I-1, 2-(4-(Adamantan-1-yl)phenoxy)-N,N-dimethylacetamide] gave an inhibition at 10 µM of 51 to 75%.
Work on O=C(COc1ccc(C23CC4CC(CC(C4)C2)C3)cc1)NCc1ccco1 [Compound I-26, 2-(4-(Adamantan-1-yl)phenoxy)-N-(furan-2-ylmethyl)acetamide] yielded an inhibition at 10 µM of 76 to 100%.
In the case of O=C(COc1ccc(C23CC4CC(CC(C4)C2)C3)cc1)N1CCNCC1 [Compound I-30, 2-(4-(Adamantan-1-yl)phenoxy)-1-(piperazin-1-yl)ethanone], the inhibition at 10 µM is reported as 76 to 100%.
Cc1cc(C23CC4CC(CC(C4)C2)C3)ccc1OCCC(=O)N1CCOCC1 [Compound I-12, 3-(4-(Adamantan-1-yl)-2-methylphenoxy)-1-morpholinopropan-1-one] was tested, and the inhibition at 10 µM was 76 to 100%.
With C[C@H]1CN(C(=O)OC(C)(C)C)CCN1C(=O)COc1ccc(C23CC4CC(CC(C4)C2)C3)cc1 [Compound I-31, (S)-tert-Butyl 4-(2-(4-(adamantan-1-yl)phenoxy)acetyl)-3-methylpiperazine-1-carboxylate] the inhibition at 10 µM was 76 to 100%.
For O=C(COc1ccc(C23CC4CC(CC(C4)C2)C3)cc1)N1CCN(Cc2ccc(C(F)(F)F)cc2)CC1 [Compound I-27, 2-(4-(Adamantan-1-yl)phenoxy)-1-(4-(4-(trifluoromethyl)benzyl)piperazin-1-yl)ethanone], the inhibition at 10 µM was 76 to 100%.
CC(C)(C)OC(=O)N1CCN(C(=O)COc2ccc(C34CC5CC(CC(C5)C3)C4)cc2)CC1 [Compound I-29, tert-Butyl 4-(2-(4-(adamantan-1-yl)phenoxy)acetyl)piperazine-1-carboxylate] gave an inhibition at 10 µM of 51 to 75%.
Compound Cc1cc(C23CC4CC(CC(C4)C2)C3)ccc1OCCC(=O)N1CCN(C)CC1 [Compound I-11, 3-(4-(Adamantan-1-yl)-2-methylphenoxy)-1-(4-methylpiperazin-1-yl)propan-1-one] has an inhibition at 10 µM of 76 to 100%.
In the case of Cc1cc(C23CC4CC(CC(C4)C2)C3)ccc1OCCC(=O)NCC[N+](C)(C)C [Compound I-21, 2-(3-(4-(Adamantan-1-yl)-2-methylphenoxy)propanamido)-N,N,N-trimethylethanaminium iodide], the inhibition at 10 µM is reported as 26 to 50%.
Cc1cc(C23CC4CC(CC(C4)C2)C3)ccc1OCC(=O)NCC[N+](C)(C)C [Compound I-17, 2-(2-(4-(Adamantan-1-yl)-2-methylphenoxy)acetamido)-N,N,N-trimethylethanaminium iodide] was tested, and the inhibition at 10 µM was 26 to 50%.
O=C(COc1ccc(C23CC4CC(CC(C4)C2)C3)cc1)N1CCn2c(nnc2C(F)(F)F)C1 [Compound I-39, 2-(4-(Adamantan-1-yl)phenoxy)-1-(3-(trifluoromethyl)-5,6-dihydro-[1,2,4]triazolo[4,3-a]pyrazin-7(8H)-yl)ethanone] showed an inhibition at 10 µM of 26 to 50%.
With Cc1cc(C23CC4CC(CC(C4)C2)C3)ccc1OCCC(=O)NCCN(C)C [Compound I-13, 3-(4-(Adamantan-1-yl)-2-methylphenoxy)-N-(2-(dimethylamino)ethyl)propanamide] the inhibition at 10 µM was 51 to 75%.
Work on CN(C)CCNC(=O)CCOc1ccc(C23CC4CC(CC(C4)C2)C3)cc1 [Compound I-10, 3-(4-(Adamantan-1-yl)phenoxy)-N-(2-(dimethylamino)ethyl)propanamide] yielded an inhibition at 10 µM of 26 to 50%.
In the case of Cc1cc(C23CC4CC(CC(C4)C2)C3)ccc1OCCC(=O)N1CC[N+](C)(C)CC1 [Compound I-20, 4-(3-(4-(Adamantan-1-yl)-2-methylphenoxy)propanoyl)-1,1-dimethylpiperazin-1-ium iodide], the inhibition at 10 µM is reported as 76 to 100%.
O=C(COc1ccc(C23CC4CC(CC(C4)C2)C3)cc1)N1CCN(CCO)CC1 [Compound I-35, 2-(4-(Adamantan-1-yl)phenoxy)-1-(4-(2-hydroxyethyl)piperazin-1-yl)ethanone] gave an inhibition at 10 µM of 26 to 50%.

From US9789114B2, “Compounds as HIF-1α inhibitors and manufacturing process thereof” (DONGGUK UNIVERSITY INDUSTRY-ACADEMIC COOPERATION FOUNDATION, priority 2011, dated 2017)
